From ChEMBL document CHEMBL1201862, “PubChem BioAssay data set” (2004)
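Results reflect a 48-hour exposure of cells in 96-well plates to compound at five concentrations. At the GI50, growth is halved.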 The source made the active and inactive calls. Cut-off read from the data, not from the text of the source: active = GI50 up to about 1.1 µM and inactive = higher.

Assays:
Test in all cases: NCI anticancer screen, dose series, 48 h
[1] = system: MOLT-4
[2] = system: NCI-H23
[3] = system: HCC 2998
[4] = system: RXF 393
[5] = system: HCT-116
[6] = system: SNB-75
[7] = system: LXFL 529
[8] = system: TK-10
[9] = system: Malme-3M
[10] = system: OVCAR-3
[11] = system: OVCAR-8
[12] = system: IGROV-1
[13] = system: A549
[14] = system: UACC-257
[15] = system: LOX IMVI
[16] = system: U-251
[17] = system: SF-295
[18] = system: NCI-H226
[19] = system: SNB-19
[20] = system: KM12
[21] = system: SW-620
[22] = system: SK-MEL-5
[23] = system: UACC-62
[24] = system: COLO 205
[25] = system: DMS-114
[26] = system: HCT-15
[27] = system: SK-MEL-28
[28] = system: 786-0
[29] = system: K562
[30] = system: CCRF-CEM
[31] = system: NCI-H522
[32] = system: HOP-92
[33] = system: DLD-1
[34] = system: CAKI-1
[35] = system: EKVX
[36] = system: RPMI-8226
[37] = system: UO-31
[38] = system: DMS-273
[39] = system: SNB-78
[40] = system: SK-OV-3
[41] = system: HT-29
[42] = system: M14
[43] = system: HOP-18
[44] = system: ACHN
[45] = system: SF-539
[46] = system: SN12C
[47] = system: A498
[48] = system: MDA-N
[49] = system: KM-20L2
[50] = system: SF-268
[51] = system: BT-549
[52] = system: HL-60
[53] = system: DU-145
[54] = system: OVCAR-4
[55] = system: MDA-MB-231
[56] = system: T47D
[57] = system: Hs-578T
[58] = system: M19-MEL
[59] = system: PC-3
[60] = system: MCF7
[61] = system: HOP-62
[62] = system: OVCAR-5
[63] = system: SK-MEL-2
[64] = system: NCI/ADR-RES
[65] = system: MDA-MB-435
[66] = system: NCI-H460
[67] = system: SR

SMILES: COC1=CC2(C=CC1=O)c1cc(OC)c(OC)cc1CCN2C(=O)c1ccccc1 (stereo not drawn)
- GI50 [1]: > 100 µM (inactive)
- GI50 [2]: > 100 µM (inactive)
- GI50 [3]: > 100 µM (inactive)
- GI50 [4]: > 100 µM (inactive)
- GI50 [5]: > 100 µM (inactive)
- GI50 [6]: > 100 µM (inactive)
- GI50 [7]: > 100 µM (inactive)
- GI50 [8]: > 100 µM (inactive)
- GI50 [9]: > 100 µM (inactive)
- GI50 [10]: > 100 µM (inactive)
- GI50 [11]: > 100 µM (inactive)
- GI50 [12]: > 100 µM (inactive)
- GI50 [13]: > 100 µM (inactive)
- GI50 [14]: > 100 µM (inactive)
- GI50 [15]: > 100 µM (inactive)
- GI50 [16]: > 100 µM (inactive)
- GI50 [17]: > 100 µM (inactive)
- GI50 [18]: > 100 µM (inactive)
- GI50 [19]: > 100 µM (inactive)
- GI50 [20]: > 100 µM (inactive)
- GI50 [21]: > 100 µM (inactive)
- GI50 [22]: > 100 µM (inactive)
- GI50 [23]: > 100 µM (inactive)
- GI50 [24]: > 100 µM (inactive)
- GI50 [25]: > 100 µM (inactive)
- GI50 [26]: > 100 µM
- GI50 [27]: > 100 µM (inactive)
- GI50 [28]: > 100 µM (inactive)
- GI50 [29]: > 100 µM (inactive)
- GI50 [30]: > 100 µM (inactive)
- GI50 [31]: > 100 µM (inactive)
- GI50 [32]: > 100 µM (inactive)
- GI50 [33]: > 100 µM (inactive)
- GI50 [34]: > 100 µM (inactive)
- GI50 [35]: > 100 µM (inactive)
- GI50 [36]: > 100 µM (inactive)
- GI50 [37]: 97.9 µM (inactive)
- GI50 [38]: > 100 µM (inactive)
- GI50 [39]: > 100 µM (inactive)
- GI50 [40]: > 100 µM (inactive)
- GI50 [41]: > 100 µM (inactive)
- GI50 [42]: > 100 µM (inactive)
- GI50 [43]: 98.2 µM (inactive)
- GI50 [44]: > 100 µM (inactive)
- GI50 [45]: > 100 µM (inactive)
- GI50 [46]: > 100 µM (inactive)
- GI50 [47]: > 100 µM (inactive)

SMILES: O/N=N/c1cnccn1
- GI50 [1]: 196 µM (inactive)
- GI50 [2]: 859 µM (inactive)
- GI50 [48]: > 1250 µM (inactive)
- GI50 [3]: > 1250 µM (inactive)
- GI50 [4]: > 1250 µM (inactive)
- GI50 [5]: > 1230 µM (inactive)
- GI50 [6]: > 1110 µM (inactive)
- GI50 [49]: > 1250 µM (inactive)
- GI50 [8]: > 1250 µM (inactive)
- GI50 [9]: > 1250 µM (inactive)
- GI50 [50]: > 1250 µM (inactive)
- GI50 [10]: > 1250 µM (inactive)
- GI50 [11]: 1200 µM (inactive)
- GI50 [12]: > 1150 µM (inactive)
- GI50 [13]: > 1250 µM (inactive)
- GI50 [14]: > 1250 µM (inactive)
- GI50 [15]: 1190 µM (inactive)
- GI50 [51]: > 979 µM (inactive)
- GI50 [16]: 1080 µM (inactive)
- GI50 [52]: 322 µM (inactive)
- GI50 [17]: > 1250 µM (inactive)
- GI50 [53]: 1090 µM (inactive)
- GI50 [18]: 1250 µM (inactive)
- GI50 [19]: > 1250 µM (inactive)
- GI50 [54]: > 438 µM (inactive)
- GI50 [55]: > 1250 µM (inactive)
- GI50 [56]: 933 µM (inactive)
- GI50 [57]: > 1210 µM (inactive)
- GI50 [20]: > 1250 µM (inactive)
- GI50 [21]: > 1250 µM (inactive)
- GI50 [58]: > 1250 µM (inactive)
- GI50 [22]: > 1250 µM (inactive)
- GI50 [59]: > 1250 µM (inactive)
- GI50 [23]: > 959 µM (inactive)
- GI50 [24]: > 1220 µM (inactive)
- GI50 [25]: 929 µM (inactive)
- GI50 [26]: > 1080 µM
- GI50 [60]: 531 µM (inactive)
- GI50 [27]: > 1250 µM (inactive)
- GI50 [61]: 218 µM (inactive)
- GI50 [28]: > 1250 µM (inactive)
- GI50 [29]: > 1190 µM (inactive)
- GI50 [62]: > 1250 µM (inactive)
- GI50 [30]: 491 µM (inactive)
- GI50 [63]: > 1200 µM (inactive)
- GI50 [31]: 1030 µM (inactive)
- GI50 [32]: > 1080 µM (inactive)
- GI50 [33]: > 1250 µM (inactive)
- GI50 [34]: 975 µM (inactive)
- GI50 [35]: > 1250 µM (inactive)
- GI50 [64]: > 1250 µM (inactive)
- GI50 [36]: > 1250 µM (inactive)
- GI50 [37]: > 1250 µM (inactive)
- GI50 [38]: > 1250 µM (inactive)
- GI50 [65]: > 1250 µM (inactive)
- GI50 [39]: > 918 µM (inactive)
- GI50 [66]: 724 µM (inactive)
- GI50 [40]: > 269 µM (inactive)
- GI50 [41]: > 1250 µM (inactive)
- GI50 [42]: > 1250 µM (inactive)
- GI50 [43]: > 1250 µM (inactive)
- GI50 [44]: 480 µM (inactive)
- GI50 [67]: > 180 µM (inactive)
- GI50 [45]: > 1190 µM (inactive)
- GI50 [46]: > 1250 µM (inactive)
- GI50 [47]: > 1250 µM (inactive)
